Molecules are shown by their SMILES.

One test addresses T1, IRAK4 (Homo sapiens, UniProt Q9NWZ3).
T1 sequence (Q9NWZ3 1-460): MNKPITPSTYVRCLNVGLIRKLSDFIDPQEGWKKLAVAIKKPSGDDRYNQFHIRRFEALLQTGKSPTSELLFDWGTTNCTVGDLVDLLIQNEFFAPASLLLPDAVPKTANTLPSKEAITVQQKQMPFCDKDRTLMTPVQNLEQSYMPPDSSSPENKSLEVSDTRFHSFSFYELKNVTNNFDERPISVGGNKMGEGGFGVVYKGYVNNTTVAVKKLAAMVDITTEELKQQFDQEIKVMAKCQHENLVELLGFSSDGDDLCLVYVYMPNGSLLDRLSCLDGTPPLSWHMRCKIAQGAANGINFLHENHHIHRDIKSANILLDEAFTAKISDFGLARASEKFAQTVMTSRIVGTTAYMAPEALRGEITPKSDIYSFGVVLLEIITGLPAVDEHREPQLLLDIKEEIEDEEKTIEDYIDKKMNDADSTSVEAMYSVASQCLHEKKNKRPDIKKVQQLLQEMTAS
Description: PBMC degradation assay (western blot, % IRAK4 degraded after 4 hours). The test is classed as cell-based. To be noted: human PBMCs. The method, then: Protocol summary of PBMC degradation studies from compound treatment through quantitation.
PBMC culture medium: Human peripheral blood mononuclear cells (PBMCs): RPMI+10% FBS (Heat-inactivated)+1% P/S.
Cells were cultured at a minimum of 2.5×10^6 c/mL. • PBMCs were incubated @ 37° C./5% CO2 and allowed to rest overnight. • Following overnight recovery, a cell count/viability assessment by trypan blue exclusion was performed. Cells densities were adjusted back to 2.5×10^6 c/mL (proceed with plating only if viability >80%). • In a 6 well plate, 2.0 mL of cells were added to each well for a minimum of 5×10^6 CT per treatment condition. Compounds dilutions were prepared from 20 mM stock and were added at a final 1000× dilution (0.1% DMSO concentration). • At the end of treatment, cells were harvested and spun @ 1800 rpm for 5 min. 1×PBS wash and spun again @ 1800 rpm for 5 min. Cell pellets were frozen and stored at −80° C. until further processing. • Lysates were generated by resuspending in lysis buffer. Protein quantification was performed with a BCA kit. • 20 μg of protein were loaded per lane and run on a 26-well 4-12% Bis-Tris SDS-page gel. • Transfers were performed on PVDF membranes using the BioRad Mixed MW turbo program for 7 min. • Membranes were blocked for one hour on a rocker at room temperature. • Primary antibodies were incubated overnight at 4° C. on a rocker. • Membranes were washed 3×TBST, 5 min each. • Secondaries were added and incubated for one hour on a rocker at room temperature. • Membranes were washed 3×TBST, 5 min each and rinsed well with deionized H2O. Membranes were scanned using the Licor Odessey CLx and bands were quantified using Image Studio Lite Version 5.2 software.
PBMC results at 4 hours. The letter codes indicate the percentage of IRAK4 degraded after 4 hours: A (>50% degradation), B (>20-50% degradation) and C (<20% degradation)
A general note: Immunoblotting shows a protein as a band on a membrane.
As to `NC(=O)c1nn(-c2ccc(C(=O)NCCCn3cc(CNc4cccc5c4C(=O)N(C4CCC(=O)NC4=O)C5=O)nn3)cc2)cc1NC(=O)c1coc(-c2ccnc(NCC(F)(F)F)c2)n1` (centres unmarked) [I-183, N-[3-carbamoyl-1-[4-[3-[4-[[[2-(2,6-dioxo-3-piperidyl)-1,3-dioxo-isoindolin-4-yl]amino]methyl]triazol-1-yl]propylcarbamoyl]phenyl]pyrazol-4-yl]-2-[2-(2,2,2-trifluoroethylamino)-4-pyridyl]oxazole-4-carboxamide], the “PBMC % IRAK4 Degradation” value is given as “B (>20-50% degradation)”.
Turning to `O=C1CCC(N2C(=O)c3cccc(NCCNCCCCCNC(=O)c4ccc(-n5cc(NC(=O)c6coc(-c7ccnc(NCC8CC8)c7)n6)c(C(F)(F)F)n5)cc4)c3C2=O)C(=O)N1` (centres unmarked) [I-150], the “PBMC % IRAK4 Degradation” value is “A (>50% degradation)”.
As to `NC(=O)c1nn(C2CN(C(=O)COCCOCCOCCOCCNc3cccc4c3C(=O)N(C3CCC(=O)NC3=O)C4=O)C2)cc1NC(=O)c1coc(-c2ccnc(NCC(F)(F)F)c2)n1` (centres unmarked) [I-157], the “PBMC % IRAK4 Degradation” value is “C (<20% degradation)”.
On the same count and under the same terms, for `CN(CCOCCOCCNc1cccc2c1C(=O)N(C1CCC(=O)NC1=O)C2=O)C(=O)c1ccc(-n2cc(NC(=O)c3coc(-c4ccnc(NCC(F)(F)F)c4)n3)c(C(N)=O)n2)cc1` (centres unmarked) [I-159, N-[3-carbamoyl-1-[4-[2-[2-[2-[[2-(2,6-dioxo-3-piperidyl)-1,3-dioxo-isoindolin-4-yl]amino]ethoxy]ethoxy]ethyl-methyl-carbamoyl]phenyl]pyrazol-4-yl]-2-[2-(2,2,2-trifluoroethylamino)-4-pyridyl]oxazole-4-carboxamide] the value was “A (>50% degradation)”; for `O=C1CCC(N2C(=O)c3cccc(NCCOCCOCCNCc4ccc(-n5cc(NC(=O)c6coc(-c7ccnc(NCC8CC8)c7)n6)c(C(F)(F)F)n5)cc4)c3C2=O)C(=O)N1` (centres unmarked) [I-185, 3-2-(2-((Cyclopropylmethyl)amino)pyridin-4-yl)-N-(1-(4-(((2-(2-(2-((2-(2,6-dioxopiperidin-3-yl)-1,3-dioxoisoindolin-4-yl)amino)ethoxy)ethoxy)ethyl)amino)methyl)phenyl)-3-(trifluoromethyl)-1H-pyrazol-4-yl)oxazole-4-carboxamide], “A (>50% degradation)”.
Regarding `O=C1CCC(N2C(=O)c3cccc(NCCOCCOCCNC(=O)c4ccc(-n5cc(NC(=O)c6coc(-c7ccnc(NCC(F)(F)F)c7)n6)c(C(F)(F)F)n5)cc4)c3C2=O)C(=O)N1` (centres unmarked) [I-134], the “PBMC % IRAK4 Degradation” value was “C (<20% degradation)”.
On the same count and under the same terms, for `NC(=O)c1nn(-c2ccc(C(=O)NCCOCCOCCNc3cccc4c3CN(C3CCC(=O)NC3=O)C4=O)cc2)cc1NC(=O)c1coc(-c2ccnc(NCC(F)(F)F)c2)n1` (centres unmarked) [I-117, N-(3-carbamoyl-1-(4-((2-(2-(2-((2-(2,6-dioxopiperidin-3-yl)-1-oxoisoindolin-4-yl)amino)ethoxy)ethoxy)ethyl)carbamoyl)phenyl)-1H-pyrazol-4-yl)-2-(2-((2,2,2-trifluoroethyl)amino)pyridin-4-yl)oxazole-4-carboxamide] the value was “A (>50% degradation)”; for `NC(=O)c1nn(-c2ccc(C(=O)NCCCCNC(=O)COc3cccc4c3C(=O)N(C3CCC(=O)NC3=O)C4=O)cc2)cc1NC(=O)c1coc(-c2ccnc(NCC(F)(F)F)c2)n1` (centres unmarked) [I-111], “B (>20-50% degradation)”; for `NC(=O)c1nn(C2CCN(C(=O)COCCOCCOCCOCCNc3cccc4c3C(=O)N(C3CCC(=O)NC3=O)C4=O)CC2)cc1NC(=O)c1coc(-c2ccnc(NCC(F)(F)F)c2)n1` (centres unmarked) [I-155], “C (<20% degradation)”.
On the same count and under the same terms, for `NC(=O)c1nn(-c2ccc(C(=O)NCCOCCOCCOCCOCCNc3cccc4c3C(=O)N(C3CCC(=O)NC3=O)C4=O)cc2)cc1NC(=O)c1coc(-c2ccnc(NCC(F)(F)F)c2)n1` (centres unmarked) [I-53] the value was “A (>50% degradation)”.

For another test, the target named is T1, IRAK4. Description: THP-1 degradation assay (western blot, % IRAK4 degraded after 24 hours). The test is classed as cell-based. Details: endogenous in cells. To be noted: THP-1 cells. On the procedure:
Compounds were reconstituted in DMSO to make stock solutions at concentration of 60 mM. THP-1 and OCI-LY10 cells were maintained in RPMI-1640 medium containing 10% FBS, 0.5 μM 2-ME or 20% FBS, 55 μM 2-ME, and 1% L-Glutamine respectively.
Cells were seeded into 6-well plates with 5e6 cells per well. 200 μL of diluted compounds were added to cells to the final concentration of 0.003-10 μM. After 4 or 24 hour-incubation at 37° C., cells were collected into 2 mL Eppendorf tubes and centrifuged at 1,000 rpm for 5 min. The cell pellets were washed with 1×DPBS once and resuspended in 60 μL lysis buffer. The cells were lysed on ice for 10 min, then centrifuged at 14,000 rpm for 10 min at 4° C. and the supernatants were collected for western blots. For THP-1 cells, the lysis buffer contained 40 mM pH 7.4 HEPES, 140 mM NaCl, 2.5 mM EDTA, 1% NP-40, 0.1% SDS, and protease inhibitor cocktail (Roche, Cat. No. 05892791001). For OCI-LY10 cells, RIPAbuffer (Thermo Fisher, 89900) with Halt Protease and Phosphatase Inhibitor Cocktail (Thermo Fisher, 78446) was applied.
The protein concentration of cell lysates was quantified with Pierce™ BCA Protein Assay Kit (Pierce, 23227). Albumin standards at different concentrations were prepared, involving 2,000 ug/mL, 1,500 ug/mL, 1,000 ug/mL, 750 ug/mL, 500 ug/mL, 250 ug/mL, 125 ug/mL, and 25 ug/mL. BCA working reagents were prepared by mixing BCA reagent A with reagent B in 50:1 ratio. 200 μL of the BCA working reagents were added to 25 μL of BCA standard or cell lysates in microplate, and mixed thoroughly on a plate shaker for 30 seconds. After incubation at 37° C. for 30 min, the absorbance of samples at 562 nm were measured with EnVision Plate Reader.
Protein lysates were prepared in NuPAGE™ LDS sample buffer and NuPAGE™ sample reducing agent, and incubated at 95° C. for 5 min. For western blots, 20-25 μg of total proteins were resolved in 4-12% Bis-Tris gels (Introgen, WG1403A) or 10% Bis-Tris Midi gels (Invitrogen, WG1202BOX) running with 1×MOPS SDS running buffer (Invitrogen, NP0001) or 1×MES SDS running buffer (Invitrogen, NP0002). The proteins were transferred to low fluorescence PVDF membranes using the Trans-Blot Turbo Transfer System. Membranes were then blocked in Odyssey blocking buffer at RT for 1 h followed by primary incubation at 4° C. overnight. The primary antibodies were IRAK1 rabbit monoclonal antibody (CST, #4504S, 1:500), IRAK3 rabbit polyclonal antibody (CST, #4369, 1:500), IRAK4 rabbit polyclonal antibody (CST, #4363S, 1:1,000), MyD88 rabbit monoclonal antibody (Abcam, Ab133739, 1:2,000), j3-actin mouse monoclonal antibody (Sigma, A5441, 10,000), and Gapdh mouse monoclonal antibody (Millipore, MAB374, 1:5,000). Membranes were washed three times with 1×TBST, and then incubated with IR Dye 800 CW Goat anti-rabbit (Licor, #926-32211) and IR Dye 700 CW Goat anti-mouse (Licor, #926-68070) secondary antibodies in 1:10,000 dilution at RT for 1 h. The western blot images were obtained using Odyssey Imaging System.
THP-1 results at 24 hours. The letter codes indicate the percentage of IRAK4 degraded after 24 hours: A (>50% degradation), B (>20-50% degradation) and C (<20% degradation)
Take `O=C1CCC(N2C(=O)c3cccc(NCCOCCOCCOCC(=O)N4CCC(NC(=O)c5cnc(Nc6ccc7cnccc7n6)cc5NC5CC5)CC4)c3C2=O)C(=O)N1` (centres unmarked) [I-43, 6-((1,6-naphthyridin-2-yl)amino)-4-(cyclopropylamino)-N-(1-(2-(2-(2-(2-((2-(2,6-dioxopiperidin-3-yl)-1,3-dioxoisoindolin-4-yl)amino)ethoxy)ethoxy)ethoxy)acetyl)piperidin-4-yl)nicotinamide]: the “THP-1 24 h % IRAK4 Degradation” value is “C (<20% degradation)”.
`O=C1CCC(N2C(=O)c3cccc(NCCOCCOCCOCCOCCOCC(F)CNC(=O)c4cnc(Nc5ccc6ncsc6c5)cc4NC4CC4)c3C2=O)C(=O)N1` (centres unmarked) [I-52]: the “THP-1 24 h % IRAK4 Degradation” value was “C (<20% degradation)”.
The same measure, in the same setting: for `O=C(COc1cccc2c1C(=O)N(C1CCC(=O)NC1=O)C2=O)NCCCNC(=O)[C@H]1CC[C@H](NC(=O)c2cnc(Nc3ccc4cnccc4n3)cc2NC2CC2)CC1` (some centres unmarked) [I-7] the value was “B (>20-50% degradation)”.
Regarding `COc1cc(Nc2nc(N[C@H]3CCCC[C@H]3N)n3ccnc3c2C(N)=O)cc(OC)c1OCCOCCOCCOCCNc1cccc2c1C(=O)N(C1CCC(=O)NC1=O)C2=O` (stereo partly drawn) [I-200, 5-(((1S,2R)-2-aminocyclohexyl)amino)-7-((4-(2-(2-(2-(2-((2-(2,6-dioxopiperidin-3-yl)-1,3-dioxoisoindolin-4-yl)amino)ethoxy)ethoxy)ethoxy)ethoxy)-3,5-dimethoxyphenyl)amino)imidazo[1,2-c]pyrimidine-8-carboxamide], the “THP-1 24 h % IRAK4 Degradation” value is listed as “C (<20% degradation)”.

These data come from US10874743B2, “IRAK degraders and uses thereof” (Kymera Therapeutics, Inc., priority 2017, dated 2020).
